Activity calls are given as the source filed them.
Experiments:
[1] = target: Peroxisome proliferator-activated receptor gamma/Nuclear receptor coactivator 3 (Homo sapiens, UniProt P37231); assay type: functional;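 also: agonist potency for raising coactivator recruitment to the receptor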
[2] = target: Peroxisome proliferator-activated receptor gamma/Nuclear receptor coactivator 2 (Homo sapiens, UniProt P37231); assay type: functional;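 also: agonist potency for raising coactivator recruitment to the receptor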
[3] = target: Peroxisome proliferator-activated receptor gamma/Nuclear receptor coactivator 1 (Homo sapiens, UniProt P37231); assay type: functional;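 also: agonist potency as compounds enhance coactivator SRC-1 recruitment to PPARgamma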
Aminopeptidase N = target: T1, Aminopeptidase N (Plasmodium falciparum FcB1/Columbia, UniProt O96935); experiment: P. falciparum M1AAP inhibitors, biochemical, fluorogenic H-Leu-NHMec substrate, 1536-well (AID 1445); design: species or system Plasmodium falciparum 3D7, 3D7
T1 sequence (O96935 whole entry): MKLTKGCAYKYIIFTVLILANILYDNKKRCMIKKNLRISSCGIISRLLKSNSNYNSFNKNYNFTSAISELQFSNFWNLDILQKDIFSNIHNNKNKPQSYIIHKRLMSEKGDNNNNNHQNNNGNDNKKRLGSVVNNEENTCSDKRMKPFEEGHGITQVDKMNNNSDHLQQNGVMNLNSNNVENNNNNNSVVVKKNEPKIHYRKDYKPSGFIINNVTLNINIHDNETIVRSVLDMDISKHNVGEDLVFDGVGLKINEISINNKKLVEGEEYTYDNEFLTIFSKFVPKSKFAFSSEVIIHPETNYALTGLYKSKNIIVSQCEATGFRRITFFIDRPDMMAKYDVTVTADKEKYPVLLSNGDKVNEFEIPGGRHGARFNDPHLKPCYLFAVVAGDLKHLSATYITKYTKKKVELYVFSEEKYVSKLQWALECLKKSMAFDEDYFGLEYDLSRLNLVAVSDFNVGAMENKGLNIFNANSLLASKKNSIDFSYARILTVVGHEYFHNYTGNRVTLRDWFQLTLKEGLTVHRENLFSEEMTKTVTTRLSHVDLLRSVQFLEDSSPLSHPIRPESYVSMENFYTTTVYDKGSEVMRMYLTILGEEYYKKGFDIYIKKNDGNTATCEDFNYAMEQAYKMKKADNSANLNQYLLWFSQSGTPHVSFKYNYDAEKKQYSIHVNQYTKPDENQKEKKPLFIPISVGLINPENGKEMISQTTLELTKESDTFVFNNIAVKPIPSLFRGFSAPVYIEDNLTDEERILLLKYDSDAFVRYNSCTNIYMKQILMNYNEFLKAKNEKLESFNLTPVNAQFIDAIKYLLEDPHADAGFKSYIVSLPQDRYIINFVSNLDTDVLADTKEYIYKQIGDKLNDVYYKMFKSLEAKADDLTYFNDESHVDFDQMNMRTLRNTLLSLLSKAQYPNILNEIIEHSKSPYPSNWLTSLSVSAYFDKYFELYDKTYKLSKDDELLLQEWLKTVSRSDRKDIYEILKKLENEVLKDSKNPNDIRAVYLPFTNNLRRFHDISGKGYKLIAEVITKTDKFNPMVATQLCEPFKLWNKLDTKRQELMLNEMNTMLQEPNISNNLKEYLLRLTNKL

[4] = target: T2, Calpain-2 catalytic subunit (Sus scrofa, UniProt P43367); experiment: pig calpain II inhibitor potency, dose response, biochemical, fluorogenic peptide substrate (AID 1420); assay type: functional
T2 sequence (P43367 whole entry): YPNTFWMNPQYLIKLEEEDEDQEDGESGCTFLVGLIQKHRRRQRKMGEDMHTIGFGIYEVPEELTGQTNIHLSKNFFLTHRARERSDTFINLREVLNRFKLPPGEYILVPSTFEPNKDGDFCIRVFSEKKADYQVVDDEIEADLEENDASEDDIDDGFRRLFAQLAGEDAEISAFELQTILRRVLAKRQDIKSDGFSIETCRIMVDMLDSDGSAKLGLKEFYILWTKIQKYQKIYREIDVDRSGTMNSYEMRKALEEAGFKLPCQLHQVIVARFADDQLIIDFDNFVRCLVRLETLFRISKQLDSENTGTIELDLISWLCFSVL

[5] = target: Induced myeloid leukemia cell differentiation protein Mcl-1 (Homo sapiens, UniProt Q07820); assay type: functional
Induced myeloid leukemia cell differentiation protein Mcl-1, sequence (Q07820 whole entry, the tested form may be a part): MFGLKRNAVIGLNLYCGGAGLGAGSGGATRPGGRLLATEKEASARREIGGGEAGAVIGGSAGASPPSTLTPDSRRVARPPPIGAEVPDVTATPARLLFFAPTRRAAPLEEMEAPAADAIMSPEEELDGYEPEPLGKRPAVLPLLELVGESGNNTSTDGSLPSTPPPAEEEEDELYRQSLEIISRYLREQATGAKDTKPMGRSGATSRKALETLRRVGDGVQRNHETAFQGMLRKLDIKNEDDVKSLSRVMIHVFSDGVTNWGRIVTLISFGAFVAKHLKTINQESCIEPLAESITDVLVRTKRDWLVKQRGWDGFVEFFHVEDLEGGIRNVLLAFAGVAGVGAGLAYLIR

[6] = HIV-1 Env-mediated cell fusion inhibitors, dose response, CCR5-tropic Env (AID 2279); assay type: functional
NS3 = NS3 (Hepatitis C virus, UniProt A3EZJ3); experiment: PubChem AID 2173; design: species or system Hepacivirus hominis
NS3, sequence (A3EZJ3 whole entry): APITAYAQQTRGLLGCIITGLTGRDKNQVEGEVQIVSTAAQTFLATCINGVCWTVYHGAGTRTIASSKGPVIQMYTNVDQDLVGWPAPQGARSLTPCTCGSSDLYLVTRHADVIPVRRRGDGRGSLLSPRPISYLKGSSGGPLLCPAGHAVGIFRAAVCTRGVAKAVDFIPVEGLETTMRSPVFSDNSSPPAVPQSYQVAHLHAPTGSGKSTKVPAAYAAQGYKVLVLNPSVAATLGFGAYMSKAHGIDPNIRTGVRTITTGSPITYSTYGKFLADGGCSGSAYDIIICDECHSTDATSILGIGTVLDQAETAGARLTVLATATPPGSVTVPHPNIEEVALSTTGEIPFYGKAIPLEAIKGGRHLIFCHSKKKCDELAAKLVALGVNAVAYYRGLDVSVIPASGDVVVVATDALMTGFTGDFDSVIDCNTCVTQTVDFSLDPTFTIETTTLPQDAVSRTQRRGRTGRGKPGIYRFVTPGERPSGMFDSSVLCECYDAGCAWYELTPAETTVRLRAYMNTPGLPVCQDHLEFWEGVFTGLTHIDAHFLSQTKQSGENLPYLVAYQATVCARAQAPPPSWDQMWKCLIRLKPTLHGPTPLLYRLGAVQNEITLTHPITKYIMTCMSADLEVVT

[7] = target: Peroxisome proliferator-activated receptor gamma/Nuclear receptor corepressor 2 (Homo sapiens, UniProt P37231+Q9Y618); assay type: functional
[8] = target: Photoreceptor-specific nuclear receptor (Homo sapiens, UniProt Q9Y5X4); assay type: functional;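 also: potency for compounds that break the NR2E3 corepressor complex and count as activators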
Photoreceptor-specific nuclear receptor, sequence (Q9Y5X4 whole entry): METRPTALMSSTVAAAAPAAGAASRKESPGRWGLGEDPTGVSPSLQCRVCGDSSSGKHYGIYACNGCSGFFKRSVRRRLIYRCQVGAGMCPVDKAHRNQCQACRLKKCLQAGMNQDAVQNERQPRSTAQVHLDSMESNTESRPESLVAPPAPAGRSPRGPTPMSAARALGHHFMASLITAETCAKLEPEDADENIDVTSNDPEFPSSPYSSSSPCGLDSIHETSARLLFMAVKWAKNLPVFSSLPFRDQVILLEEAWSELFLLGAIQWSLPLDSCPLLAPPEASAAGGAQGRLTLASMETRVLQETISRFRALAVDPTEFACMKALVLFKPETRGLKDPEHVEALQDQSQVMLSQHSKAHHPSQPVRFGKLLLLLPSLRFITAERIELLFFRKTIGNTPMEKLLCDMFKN

[9] = Luminescence-based counterscreen assay for KLF5 inhibitors: dose response cell-based high throughput screening assay to identify cytotoxic compounds using the IEC-6 intestinal epithelial cell line. [Related pubchem assays: 1700 (Primary screen.), 1834 (Confirmation screen.), 1858 (Summary AID.), 1905 (Counterscreen.)]; assay type: functional
[10] = inhibitors of firefly luciferase expression or activity, dose response, H4 neuroglioma cells, luminescence (AID 1990); assay type: functional, cell-based
Paired box protein Pax-8 = Paired box protein Pax-8 (Homo sapiens, UniProt Q06710); experiment: inhibitors of PAX8-driven TPO luciferase reporter, dose response, RMG-I cells, cherry-pick (AID 687027); assay type: functional, cell-based;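 also: luciferase reporter driven by Pax8 target thyroperoxidase promoter measured by SteadyGlo luminescence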
Paired box protein Pax-8, sequence (Q06710 whole entry): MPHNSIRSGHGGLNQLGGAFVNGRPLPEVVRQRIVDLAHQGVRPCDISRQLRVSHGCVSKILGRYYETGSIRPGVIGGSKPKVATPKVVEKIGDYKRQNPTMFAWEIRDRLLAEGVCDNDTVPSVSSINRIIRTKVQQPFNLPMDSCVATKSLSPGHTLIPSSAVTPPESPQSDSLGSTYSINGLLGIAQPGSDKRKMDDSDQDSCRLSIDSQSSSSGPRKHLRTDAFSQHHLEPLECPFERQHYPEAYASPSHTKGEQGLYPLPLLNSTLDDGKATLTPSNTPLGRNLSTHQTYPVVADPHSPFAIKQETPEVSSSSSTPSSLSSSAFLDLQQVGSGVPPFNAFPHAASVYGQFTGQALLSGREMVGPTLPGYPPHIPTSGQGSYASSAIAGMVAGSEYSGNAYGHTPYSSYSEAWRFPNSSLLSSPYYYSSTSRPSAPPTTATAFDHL

[11] = Luminescence Cell-Based Dose Response HTS to Identify Inhibitors of 5'UTR Stem-Loop Driven Prion Protein mRNA Translation in H4 Neuroglioblastoma Cells. [Related pubchem assays: 1827 (Project Summary), 1813 (Primary HTS)]; assay type: functional
[12] = inhibitors of SNCA 5'UTR-driven reporter translation, confirmation, H4 neuroglioma cells, luminescence (AID 1988); assay type: functional, cell-based
[13] = non-specific cell cytotoxicity, dose response, cytotoxicity control for PAX8 inhibitor project, plate reader, dry powder samples (AID 743021); assay type: functional, cell-based
Estrogen receptor beta = Estrogen receptor beta (Homo sapiens, UniProt Q92731); experiment: ERβ–SRC-3 coactivator interaction inhibitors, confirmation, orthogonal assay, biochemical, ELISA, streptavidin-HRP readout (AID 1060)
Large T antigen = Large T antigen (Simian virus 40, UniProt P03070); assay type: functional, Betapolyomavirus macacae;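 also: Confirmatory-stage PubChem screen for compounds that inhibit SV40 T antigen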
Large T antigen, sequence (P03070 whole entry): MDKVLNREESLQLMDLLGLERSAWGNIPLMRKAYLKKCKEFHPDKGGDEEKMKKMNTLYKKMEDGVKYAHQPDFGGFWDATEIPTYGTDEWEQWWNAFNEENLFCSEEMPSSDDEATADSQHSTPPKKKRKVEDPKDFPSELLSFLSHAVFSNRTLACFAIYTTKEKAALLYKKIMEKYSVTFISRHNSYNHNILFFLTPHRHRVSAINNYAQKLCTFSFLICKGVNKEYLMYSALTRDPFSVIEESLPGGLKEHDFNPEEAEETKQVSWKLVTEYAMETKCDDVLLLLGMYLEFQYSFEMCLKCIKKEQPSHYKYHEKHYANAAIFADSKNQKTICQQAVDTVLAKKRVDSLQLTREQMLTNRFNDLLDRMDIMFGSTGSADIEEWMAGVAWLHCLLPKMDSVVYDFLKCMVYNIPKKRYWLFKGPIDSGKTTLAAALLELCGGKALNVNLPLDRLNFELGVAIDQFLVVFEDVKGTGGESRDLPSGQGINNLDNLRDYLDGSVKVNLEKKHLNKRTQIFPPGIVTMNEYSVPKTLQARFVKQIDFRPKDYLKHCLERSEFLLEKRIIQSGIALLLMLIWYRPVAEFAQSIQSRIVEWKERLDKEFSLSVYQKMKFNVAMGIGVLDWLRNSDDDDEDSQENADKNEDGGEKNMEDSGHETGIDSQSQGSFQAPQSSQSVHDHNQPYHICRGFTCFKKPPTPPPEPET

Insulin-degrading enzyme = target: T3, Insulin-degrading enzyme (Homo sapiens, UniProt P14735); experiment: Dose Response: Fluorescence polarization-based cell-based high throughput dose response assay for inhibitors of insulin-degrading enzyme (IDE). [Related pubchem assays: 434962 (Primary screen (IDE inhibitors in singlicate)), 449730 (Counterscreen (Cytotoxicity in triplicate)), 435028 (Confirmation (IDE inhibitors in triplicate)), 434984 (Summary …; assay type: functional
T3 sequence (P14735 whole entry): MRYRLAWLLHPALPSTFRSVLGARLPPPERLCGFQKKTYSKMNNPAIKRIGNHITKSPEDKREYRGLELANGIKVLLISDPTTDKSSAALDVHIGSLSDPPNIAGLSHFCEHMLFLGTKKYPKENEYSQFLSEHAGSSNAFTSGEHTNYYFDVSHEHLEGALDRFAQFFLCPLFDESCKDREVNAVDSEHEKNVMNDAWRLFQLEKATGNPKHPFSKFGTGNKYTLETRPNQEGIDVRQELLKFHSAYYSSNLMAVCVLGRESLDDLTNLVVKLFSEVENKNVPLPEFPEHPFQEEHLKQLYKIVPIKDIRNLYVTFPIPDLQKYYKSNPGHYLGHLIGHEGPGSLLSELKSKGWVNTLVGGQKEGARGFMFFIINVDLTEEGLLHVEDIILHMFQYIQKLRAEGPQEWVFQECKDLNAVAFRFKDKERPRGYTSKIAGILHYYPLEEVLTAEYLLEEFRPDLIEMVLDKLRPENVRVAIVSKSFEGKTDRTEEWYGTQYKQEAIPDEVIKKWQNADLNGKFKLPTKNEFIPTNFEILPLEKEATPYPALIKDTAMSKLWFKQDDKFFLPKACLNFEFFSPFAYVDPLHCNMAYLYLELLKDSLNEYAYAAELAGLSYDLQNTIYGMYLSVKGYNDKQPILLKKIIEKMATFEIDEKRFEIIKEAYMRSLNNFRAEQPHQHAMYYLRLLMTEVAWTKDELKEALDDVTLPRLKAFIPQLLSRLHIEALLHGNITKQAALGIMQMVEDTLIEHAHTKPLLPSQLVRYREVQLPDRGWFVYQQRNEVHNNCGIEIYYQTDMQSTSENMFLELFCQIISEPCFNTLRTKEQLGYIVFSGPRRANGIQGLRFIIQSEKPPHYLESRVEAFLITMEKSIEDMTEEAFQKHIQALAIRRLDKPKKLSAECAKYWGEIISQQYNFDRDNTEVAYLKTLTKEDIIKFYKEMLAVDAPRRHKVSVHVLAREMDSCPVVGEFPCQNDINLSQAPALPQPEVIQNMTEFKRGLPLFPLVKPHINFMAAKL

[14] = Counterscreen for IDE inhibitors: Luminescence-based cell-based high throughput dose response assay to identify compounds that are cytotoxic to HEK cells. [Related pubchem assays: 434962 (Primary screen (IDE inhibitors in singlicate)), 449730 (Counterscreen (Cytotoxicity in triplicate)), 435028 (Confirmation (IDE inhibitors in triplicate)) …; assay type: functional; settings: HEK293
HeLa = experiment: Cytotoxicity counterscreen assay for transcriptional activators of heat shock protein 70 (Hsp70). [Related pubchem assays: 1203, 1252 ]; assay type: functional; settings: Homo sapiens;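 also: cells exposed to compound for 16 hours before readout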
[15] = Luminescence Cell-Based Dose Confirmation HTS to Identify Activators of 5'UTR Stem-Loop Driven Alpha-Synuclein mRNA Translation in H4 Neuroglioblastoma Cells. [Related pubchem assays: 1829 (Project Summary), 1814 (Primary HTS)]; assay type: functional
[16] = M. tuberculosis H37Rv growth inhibitors, H37Rv strain (AID 1626); assay type: functional
[17] = Luminescence Cell-Based Dose Response HTS to Identify Activators of Luciferase Translation or Activity in H4 […] Cells. [Related pubchem assays: 1829 (Project Summary), 1814 (Primary HTS)]; assay type: functional
[18] = NIH-3T3 fibroblast cytotoxicity, dose response, cytotoxicity control, cell-based, fluorescence, Alamar Blue, secondary assay (AID 2327); assay type: functional;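 also: NIH-3T3 mouse fibroblasts cultured with fluconazole at 8 µg/mL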
[19] = C. albicans growth with fluconazole, confirmation, fluorescence, retest (AID 2467); assay type: functional, cell-based
[20] = target: T4, Heat shock factor protein 1 (Mus musculus, UniProt P38532); experiment: inhibition of MG132-induced HSE-luciferase signal, confirmation, cell-based, NIH3T3, luminescence, dose retest (AID 2382); assay type: functional;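 also: NIH3T3 fibroblasts with HSF1-driven luciferase reporter stressed by proteasome inhibitor MG132; luminescence from HSF1-driven luciferase expression after 8 hours of MG132 stress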
T4 sequence (P38532 whole entry): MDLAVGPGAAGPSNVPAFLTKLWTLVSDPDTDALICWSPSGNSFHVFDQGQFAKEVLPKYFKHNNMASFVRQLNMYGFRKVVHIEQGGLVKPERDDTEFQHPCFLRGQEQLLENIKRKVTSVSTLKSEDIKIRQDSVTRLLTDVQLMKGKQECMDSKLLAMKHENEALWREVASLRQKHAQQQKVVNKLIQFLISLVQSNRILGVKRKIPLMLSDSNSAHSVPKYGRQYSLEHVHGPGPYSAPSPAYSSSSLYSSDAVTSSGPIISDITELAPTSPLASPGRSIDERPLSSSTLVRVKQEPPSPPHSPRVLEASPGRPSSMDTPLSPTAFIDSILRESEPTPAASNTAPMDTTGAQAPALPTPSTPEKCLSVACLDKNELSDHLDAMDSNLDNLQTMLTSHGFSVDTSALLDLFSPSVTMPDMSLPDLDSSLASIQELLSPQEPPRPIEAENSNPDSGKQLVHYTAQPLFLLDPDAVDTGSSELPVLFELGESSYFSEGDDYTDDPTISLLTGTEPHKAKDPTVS

[21] = target: Inward rectifier potassium channel 2 (Mus musculus, UniProt P35561); experiment: Manual electrophysiological patch clamp assay for SAR compounds that inhibit/block inward-rectifying potassium ion channel Kir2.1. [Related pubchem assays: 1843 (Summary assay for Kir2.1 inhibitor assays.), 1672 (Primary HTS of 305616 compounds where 2592 were identified as active.)]; assay type: functional
Inward rectifier potassium channel 2, sequence (P35561 whole entry): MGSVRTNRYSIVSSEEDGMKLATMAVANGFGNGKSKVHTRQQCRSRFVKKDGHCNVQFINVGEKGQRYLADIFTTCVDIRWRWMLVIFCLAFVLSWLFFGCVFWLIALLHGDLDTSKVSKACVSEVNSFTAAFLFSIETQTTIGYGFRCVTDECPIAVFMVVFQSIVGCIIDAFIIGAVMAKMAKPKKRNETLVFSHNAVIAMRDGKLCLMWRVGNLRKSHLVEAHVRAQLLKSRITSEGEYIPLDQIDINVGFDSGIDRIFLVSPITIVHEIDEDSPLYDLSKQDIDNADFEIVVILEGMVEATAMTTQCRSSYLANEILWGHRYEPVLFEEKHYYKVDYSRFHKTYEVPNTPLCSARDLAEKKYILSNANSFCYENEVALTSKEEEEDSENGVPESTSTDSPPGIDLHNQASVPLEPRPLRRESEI

Peroxisome proliferator-activated receptor gamma/Nuclear receptor coactivator 3, sequence (P37231 whole entry): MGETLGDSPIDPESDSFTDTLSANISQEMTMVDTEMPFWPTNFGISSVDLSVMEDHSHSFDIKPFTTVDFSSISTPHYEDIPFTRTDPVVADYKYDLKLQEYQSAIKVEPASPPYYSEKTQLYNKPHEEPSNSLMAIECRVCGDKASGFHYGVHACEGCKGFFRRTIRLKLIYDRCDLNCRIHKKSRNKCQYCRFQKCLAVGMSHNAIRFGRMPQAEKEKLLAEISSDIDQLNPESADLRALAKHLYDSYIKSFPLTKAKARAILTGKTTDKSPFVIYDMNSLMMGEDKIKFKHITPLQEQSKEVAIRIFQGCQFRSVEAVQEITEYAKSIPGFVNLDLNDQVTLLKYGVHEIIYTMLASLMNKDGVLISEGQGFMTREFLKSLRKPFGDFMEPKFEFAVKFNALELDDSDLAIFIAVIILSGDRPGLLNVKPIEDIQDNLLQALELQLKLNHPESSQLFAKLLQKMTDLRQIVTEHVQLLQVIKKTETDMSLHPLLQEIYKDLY
Peroxisome proliferator-activated receptor gamma/Nuclear receptor coactivator 3, sequence (Q9Y6Q9 whole entry, further chain): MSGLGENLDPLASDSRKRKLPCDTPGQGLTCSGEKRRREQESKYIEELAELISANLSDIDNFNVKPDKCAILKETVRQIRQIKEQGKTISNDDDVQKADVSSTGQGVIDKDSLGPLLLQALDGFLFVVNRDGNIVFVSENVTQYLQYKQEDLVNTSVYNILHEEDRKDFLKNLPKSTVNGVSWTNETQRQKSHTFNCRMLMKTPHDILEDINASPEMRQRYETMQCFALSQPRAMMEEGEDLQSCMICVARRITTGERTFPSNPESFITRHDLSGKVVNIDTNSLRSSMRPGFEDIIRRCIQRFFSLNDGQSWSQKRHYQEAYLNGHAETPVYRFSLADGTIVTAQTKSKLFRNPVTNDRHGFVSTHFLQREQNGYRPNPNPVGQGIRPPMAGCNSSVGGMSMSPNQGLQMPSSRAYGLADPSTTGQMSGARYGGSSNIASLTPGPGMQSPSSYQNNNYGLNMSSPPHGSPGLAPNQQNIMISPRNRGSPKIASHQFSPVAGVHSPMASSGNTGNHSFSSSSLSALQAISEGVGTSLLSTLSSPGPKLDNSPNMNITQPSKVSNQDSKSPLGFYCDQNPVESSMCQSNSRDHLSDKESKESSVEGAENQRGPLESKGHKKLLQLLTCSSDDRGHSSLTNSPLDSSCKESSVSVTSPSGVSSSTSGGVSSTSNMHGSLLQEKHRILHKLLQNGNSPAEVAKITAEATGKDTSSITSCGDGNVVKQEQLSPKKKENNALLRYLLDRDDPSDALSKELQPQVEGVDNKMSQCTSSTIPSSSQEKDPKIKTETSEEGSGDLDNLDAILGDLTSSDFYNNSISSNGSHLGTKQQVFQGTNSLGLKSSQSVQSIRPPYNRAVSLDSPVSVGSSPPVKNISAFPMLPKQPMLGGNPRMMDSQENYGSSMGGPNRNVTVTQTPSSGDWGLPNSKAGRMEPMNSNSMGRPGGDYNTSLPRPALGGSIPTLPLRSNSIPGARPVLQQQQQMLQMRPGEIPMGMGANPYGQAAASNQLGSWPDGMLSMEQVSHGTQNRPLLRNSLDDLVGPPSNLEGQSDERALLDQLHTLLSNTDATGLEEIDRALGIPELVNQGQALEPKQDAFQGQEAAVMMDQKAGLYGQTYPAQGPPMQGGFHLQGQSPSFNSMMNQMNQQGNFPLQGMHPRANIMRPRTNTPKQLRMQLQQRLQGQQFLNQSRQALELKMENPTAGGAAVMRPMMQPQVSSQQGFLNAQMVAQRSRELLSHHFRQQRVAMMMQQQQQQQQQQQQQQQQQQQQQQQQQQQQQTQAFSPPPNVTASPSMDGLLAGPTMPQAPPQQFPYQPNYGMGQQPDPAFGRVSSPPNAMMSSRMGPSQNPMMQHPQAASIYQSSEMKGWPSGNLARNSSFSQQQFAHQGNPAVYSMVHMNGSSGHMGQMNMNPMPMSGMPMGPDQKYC

With `O=C(Nc1nc(-c2ccccc2)nc2ccccc12)c1ccc(F)cc1` the EC50 [1] was 23 µM (not active), the EC50 [2] was 13.5 µM (not active) and the EC50 [3] was 17.2 µM (not active).
With `COc1cc(/C=C2\SC(=S)NC2=O)ccc1OS(=O)(=O)c1ccccc1` the IC50 (Aminopeptidase N) was 38.6 µM (active), the IC50 [4] was 11.1 µM (not active) and the IC50 [5] was 2.79 µM (active). For the same molecule, the IC50 [6] was 16.5 µM (active).
With `Cc1ccc(C(=O)C2=C(O)C(=O)N(Cc3cccnc3)C2c2cccc(Oc3ccccc3)c2)o1` (centres undefined) the IC50 (NS3) was 6.11 µM (active), the IC50 [7] was 2.46 µM (active) and the IC50 [8] was 5.73 µM (active).
In the case of `C/C(=N\NC(=O)c1[nH]nc2c1CCC2)c1cccs1`, the IC50 [9] is reported as 10.1 µM (not active), the EC50 [10] is reported as 4.85 µM (active) and the AC50 (Paired box protein Pax-8) is reported as 5.19 µM (active). The EC50 [11] was 4.49 µM (active), the EC50 [12] was 2.95 µM (active) and the AC50 [13] was 8.65 µM (active).
With `Cc1cc(-c2nc3c4c5c(sc4nc(O)n3n2)CCC5)c(C)o1` the IC50 (Estrogen receptor beta) was 18.6 µM (not active), the IC50 [5] was 3.05 µM (active) and the IC50 (Large T antigen) was 24.8 µM (active).
For `CC(Oc1ccc2c3c(c(=O)oc2c1)CCCC3)C(=O)NCc1ccncc1` (centres undefined), the IC50 (Insulin-degrading enzyme) was > 55.9 µM (not active) and the IC50 [14] was 36.4 µM (not active).
For `CN(C)/C=C1/NC(=S)NC1=O`, the CC50 (HeLa) was > 99 µM (not active).
With `COc1cc(/C=N/N=C(/Nc2ccc(C)cc2)c2nc3ccccc3s2)ccc1O` the EC50 [15] was 17.6 µM (active), the IC50 [16] was > 100 µM (active) and the EC50 [17] was 0.154 µM (active). For the same molecule, the EC50 [18] was > 150 µM (inactive), the EC50 [19] was > 38 µM (not active) and the EC50 [20] was < 0.16 µM (active).
With `COc1ccc(CNCc2ccccc2C)cc1` the IC50 [21] was 9.08 µM (active).
